Four compounds from patent US20100267749A1, “TRISUBSTITUTED FUROPYRIMIDINES AND USE THEREOF” (BAYER SCHERING PHARMA AKTIENGESELLSCHAFT, priority 2007, published 2010) can be followed below.

T1 sequence (P43119 whole entry): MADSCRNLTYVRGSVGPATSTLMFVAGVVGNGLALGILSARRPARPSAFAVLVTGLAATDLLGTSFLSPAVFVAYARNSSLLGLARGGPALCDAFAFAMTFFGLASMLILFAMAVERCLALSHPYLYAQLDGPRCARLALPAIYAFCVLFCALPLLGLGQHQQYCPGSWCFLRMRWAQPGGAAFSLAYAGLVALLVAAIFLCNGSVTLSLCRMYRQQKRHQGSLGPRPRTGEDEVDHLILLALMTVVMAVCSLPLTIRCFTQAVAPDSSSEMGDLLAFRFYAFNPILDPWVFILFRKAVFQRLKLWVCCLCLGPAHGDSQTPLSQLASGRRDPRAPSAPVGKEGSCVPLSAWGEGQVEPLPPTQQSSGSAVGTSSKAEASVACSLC

This assay has as its target T1, Prostacyclin Receptors (IP Receptors) of Human Thrombocyte Membranes (Homo sapiens, UniProt P43119).
T1 construct: Thrombocyte membranes are obtained by centrifuging 50 ml of human blood; tissue Maco Pharma, Langen (buffy coats); host or cells: human thrombocyte (platelet) membranes from human blood
Briefly: Binding to prostacyclin receptors (IP receptors) of human thrombocyte membranes, 3H-Iloprost displacement. As to conditions: 3 nM 3H-Iloprost, 60 min, room temperature. As for the experimental part:
B-1. Studies of Binding to Prostacyclin Receptors (IP Receptors) of Human Thrombocyte Membranes
Thrombocyte membranes are obtained by centrifuging 50 ml of human blood (Buffy coats with CDP Stabilizer, from Maco Pharma, Langen) for 20 min at 160×g. Remove the supernatant (platelet-rich plasma, PRP) and then centrifuge again at 2000×g for 10 min at room temperature. Resuspend the sediment in 50 mM tris(hydroxymethyl)amino-methane, which has been adjusted to a pH of 7.4 with 1 N hydrochloric acid, and store at −20° C. overnight. On the next day, centrifuge the suspension at 80 000×g and 4° C. for 30 min. Discard the supernatant. Resuspend the sediment in 50 mM tris(hydroxy-methyl)aminomethane/hydrochloric acid, 0.25 mM ethylene diamine tetraacetic acid (EDTA), pH 7.4, and then centrifuge once again at 80 000×g and 4° C. for 30 min. Take up the membrane sediment in binding buffer (50 mM tris(hydroxymethyl)-aminomethane/hydrochloric acid, 5 mM magnesium chloride, pH 7.4) and store at −70° C. until the binding test.
For the binding test, incubate 3 nM ^3H-Iloprost (592 GBq/mmol, from AmershamBioscience) for 60 min with 300-1000 μg/ml of human thrombocyte membranes per charge (max. 0.2 ml) in the presence of the test substances at room temperature. After stopping, add cold binding buffer to the membranes and wash with 0.1% bovine serum albumin. After adding Ultima Gold Scintillator, quantify the radioactivity bound to the membranes using a scintillation counter. The nonspecific binding is defined as radioactivity in the presence of 1 μM Iloprost (from Cayman Chemical, Ann Arbor) and is as a rule <25% of the bound total radioactivity. The binding data (IC50 values) are determined using the program GraphPad Prism Version 3.02.
Broadly, the IC50 is the concentration that gives 50% inhibition. A low value points to higher potency. `CCCC(=O)/C=C/c1c(-c2ccccc2)oc2ncnc(O[C@H](C)CCCCC(=O)O)c12` [Example 17] showed an IC50 of 1050 nM.
In turn, `CCCNC(=O)/C(C)=C/c1c(-c2ccccc2)oc2ncnc(O[C@H](C)CCCCC(=O)O)c12` [Example 21, (6R)-6-({5-[(1E)-2-methyl-3-oxo-3-(propylamino)prop-1-en-1-yl]-6-phenylfuro[2,3-d]pyrimidin-4-yl}oxy)heptanoic acid] came in with an IC50 of 132 nM.
`C=CCOC(=O)/C=C/c1c(-c2ccccc2)oc2ncnc(O[C@H](C)CCCCC(=O)O)c12` [Example 15] showed an IC50 of 545 nM.
The value for `CCOC(=O)/C(C)=C/c1c(-c2ccccc2)oc2ncnc(O[C@H](C)CCCCC(=O)O)c12` [Example 16, (6R)-6-({5-[(1E)-3-ethoxy-2-methyl-3-oxoprop-1-en-1-yl]-6-phenylfuro[2,3-d]pyrimidin-4-yl}oxy)heptanoic acid] was 13 nM.
